This note sets out measurements from US11524966B1 (Valo Early Discovery, Inc., priority 2017, dated 2022).

Each structure is given as a SMILES string.

The assay concerns the target T1, USP28 (His-tagged USP28-FL-mammalian) (Homo sapiens, UniProt Q96RU2).
T1 construct: Expression of USP28 (1-1077)-TEV-6*His (pTT5 vector); made in house; host or cells: Expi293f cells (pTT5 vector)
T1 sequence (Q96RU2 1-1077): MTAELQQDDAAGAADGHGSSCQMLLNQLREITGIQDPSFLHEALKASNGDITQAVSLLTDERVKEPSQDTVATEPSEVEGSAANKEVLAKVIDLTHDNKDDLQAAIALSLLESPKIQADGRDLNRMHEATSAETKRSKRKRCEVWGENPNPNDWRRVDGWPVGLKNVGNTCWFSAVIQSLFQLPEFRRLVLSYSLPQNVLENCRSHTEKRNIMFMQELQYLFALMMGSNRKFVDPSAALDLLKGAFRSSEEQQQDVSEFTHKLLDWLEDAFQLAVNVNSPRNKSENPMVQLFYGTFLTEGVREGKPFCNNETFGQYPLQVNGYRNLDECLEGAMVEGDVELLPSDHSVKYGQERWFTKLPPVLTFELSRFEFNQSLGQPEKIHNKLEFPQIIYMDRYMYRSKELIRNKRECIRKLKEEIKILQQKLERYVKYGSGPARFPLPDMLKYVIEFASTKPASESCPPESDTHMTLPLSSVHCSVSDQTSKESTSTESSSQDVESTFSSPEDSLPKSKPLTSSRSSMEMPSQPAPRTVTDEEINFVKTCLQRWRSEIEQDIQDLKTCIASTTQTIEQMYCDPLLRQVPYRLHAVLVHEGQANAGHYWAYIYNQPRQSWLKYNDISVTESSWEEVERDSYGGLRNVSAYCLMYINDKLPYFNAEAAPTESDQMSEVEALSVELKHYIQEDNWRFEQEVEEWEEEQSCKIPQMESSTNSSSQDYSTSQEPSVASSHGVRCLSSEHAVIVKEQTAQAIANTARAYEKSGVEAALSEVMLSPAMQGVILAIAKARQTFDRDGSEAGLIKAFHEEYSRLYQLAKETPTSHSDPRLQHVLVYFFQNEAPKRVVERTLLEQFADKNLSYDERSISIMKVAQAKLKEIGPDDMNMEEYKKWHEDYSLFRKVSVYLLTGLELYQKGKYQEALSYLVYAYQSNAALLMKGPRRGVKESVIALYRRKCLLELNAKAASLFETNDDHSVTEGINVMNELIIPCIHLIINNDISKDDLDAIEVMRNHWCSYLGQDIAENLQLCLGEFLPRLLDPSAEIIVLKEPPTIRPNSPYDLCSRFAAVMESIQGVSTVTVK
The assay is described as follows: Ubiquitin-Rhodamine 110 Assay for USP28 Activity, Example A-1(a). The assay is classed as biochemical. The settings on record: Ubiquitin-Rhodamine 110 assay, Example A-1(a); read-out: USP28 A-1(a) IC50 range. An outline of the steps:
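Full-length His-tagged USP28 (1-1077, Expi293F-expressed; […]) was preincubated 30 min with compound (25 μM–1.3 nM, 10-point 3-fold) in 20 mM Tris-HCl pH 8.0, 3 mM BME, 0.03% BGG, 0.01% Triton X-100. Ub-Rh110 (25 nM) was then added for 45 min at room temperature, stopped with citric acid, and read by fluorescence (485/535 nm).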
For orientation: IC50 means the point on the concentration scale where inhibition reaches its midpoint. Regarding `Cc1cc(C)c2c(N)c(C(=O)N[C@H]3CCc4nc(N5CC[C@@H]6CNC[C@@H]65)ccc4C3)sc2n1` [Example 219, N-[(6S)-2-[(3aR,6aR)-octahydropyrrolo[2,3-c]pyrrol-1-yl]-5,6,7,8-tetrahydroquinolin-6-yl]-3-amino-4,6-dimethylthieno[2,3-b]pyridine-2-carboxamide], the IC50 is 1 to 50 nM.

In the case of `CO[C@H]1CN(c2ccc3c(c2)OC[C@H](NC(=O)c2sc4nc(C)ccc4c2N)C3)C[C@@H]1NC(C)=O` [Example 213, 3-amino-N-[(3R)-7-[(3S,4S)-3-acetamido-4-methoxypyrrolidin-1-yl]-3,4-dihydro-2H-1-benzopyran-3-yl]-6-methylthieno[2,3-b]pyridine-2-carboxamide], the IC50 fell in the range of 50 to 200 nM.

In the case of `N#Cc1c(N2CC3CCC(C2)N3)cc(F)c2c1CC[C@H](NC(=O)c1cnc3c(c1)[C@@H]1C[C@@H]1CN3)C2` [Example 195, (6aS,7aR)-N-[(2S)-5-cyano-6-{3,8-diazabicyclo[3.2.1]octan-3-yl}-8-fluoro-1,2,3,4-tetrahydronaphthalen-2-yl]-5H,6H,6aH,7H,7aH-cyclopropa[c]1,8-naphthyridine-2-carboxamide], the IC50 lay in the range of 1 to 50 nM.

In the case of `Cc1ccc2c(N)c(C(=O)N[C@H]3COc4cc(N5CC[C@H]6CNC[C@H]65)cc(F)c4C3)sc2n1` [Example 220, N-[(3R)-7-[(3aS,6aS)-octahydropyrrolo[2,3-c]pyrrol-1-yl]-5-fluoro-3,4-dihydro-2H-1-benzopyran-3-yl]-3-amino-6-methylthieno[2,3-b]pyridine-2-carboxamide], the IC50 fell in the range of 1 to 50 nM.

For `Cc1ccc2c(N)c(C(=O)N[C@H]3COc4cc(N5CCO[C@@H]6CNC[C@@H]65)ccc4C3)sc2n1` [Example 185, N-[(3R)-7-[(4aS,7aR)-octahydropyrrolo[3,4-b]morpholin-4-yl]-3,4-dihydro-2H-1-benzopyran-3-yl]-3-amino-6-methylthieno[2,3-b]pyridine-2-carboxamide], the IC50 lay in the range of 1 to 50 nM.

With `O=C(N[C@@H]1CCc2cc(N3CC4CCC(C3)N4)cc(F)c2C1)c1cnc2c(c1)[C@H]1C[C@H]1CN2` [Example 194, (6aR,7aS)-N-[(2R)-6-{3,8-diazabicyclo[3.2.1]octan-3-yl}-8-fluoro-1,2,3,4-tetrahydronaphthalen-2-yl]-5H,6H,6aH,7H,7aH-cyclopropa[c]1,8-naphthyridine-2-carboxamide], the IC50 was 200 to 2000 nM.

On to `Cc1ccc2c(N)c(C(=O)N[C@H]3COc4cc(N5C[C@@H](N)C6(COC6)C5)ccc4C3)sc2n1` [Example 259, 3-amino-N-[(3R)-7-[(8S)-8-amino-2-oxa-6-azaspiro[3.4]octan-6-yl]-3,4-dihydro-2H-1-benzopyran-3-yl]-6-methylthieno[2,3-b]pyridine-2-carboxamide], for which the IC50 was 1 to 50 nM.

Turning to `CO[C@H]1CN(c2cc3c(c(F)c2C#N)C[C@@H](NC(=O)c2sc4nc(C)ccc4c2N)CO3)C[C@@H]1N` [Example 200], the IC50 was in the range of 1 to 50 nM.

As to `Cc1cc(C)c2c(N)c(C(=O)N[C@H]3COc4cc(N5CC6CCC(C5)N6)c(C#N)c(F)c4C3)sc2n1` [Example 241, 3-amino-N-[(3R)-6-cyano-7-{3,8-diazabicyclo[3.2.1]octan-3-yl}-5-fluoro-3,4-dihydro-2H-1-benzopyran-3-yl]-4,6-dimethylthieno[2,3-b]pyridine-2-carboxamide], the IC50 was 1 to 50 nM.

Regarding `Cc1ccc2c(N)c(C(=O)N[C@H]3COc4cc(N5CC[C@@H]6CCNC[C@@H]65)ccc4C3)sc2n1` [Example 225], the IC50 lay in the range of 1 to 50 nM.

Consider `Cc1ccc2c(N)c(C(=O)N[C@H]3COc4cc(N5CC[C@H]6CNCC[C@H]65)ccc4C3)sc2n1` [Example 235, N-[(3R)-7-[(3aS,7aR)-octahydro-1H-pyrrolo[3,2-c]pyridin-1-yl]-3,4-dihydro-2H-1-benzopyran-3-yl]-3-amino-6-methylthieno[2,3-b]pyridine-2-carboxamide], for which the IC50 is 1 to 50 nM.

Consider `Cc1ccc2c(N)c(C(=O)N[C@H]3COc4cc(N5CC[C@@H]6CNCC[C@@H]65)ccc4C3)sc2n1` [Example 236, N-[(3R)-7-[(3aR,7aS)-octahydro-1H-pyrrolo[3,2-c]pyridin-1-yl]-3,4-dihydro-2H-1-benzopyran-3-yl]-3-amino-6-methylthieno[2,3-b]pyridine-2-carboxamide], for which the IC50 was in the range of 1 to 50 nM.

For `Cc1cc(C)c2c(N)c(C(=O)N[C@H]3COc4cc(N5CC[C@H]6CNC[C@H]65)ccc4C3)sc2n1` [Example 226, N-[(3R)-7-[(3aS,6aS)-octahydropyrrolo[2,3-c]pyrrol-1-yl]-3,4-dihydro-2H-1-benzopyran-3-yl]-3-amino-4,6-dimethylthieno[2,3-b]pyridine-2-carboxamide], the IC50 fell in the range of 1 to 50 nM.

For the compound `Cc1ccc2c(N)c(C(=O)N[C@H]3COc4cc(N5C[C@H](N)C(F)(F)C5)ccc4C3)sc2n1` [Example 256, 3-amino-N-[(3R)-7-[(4S)-4-amino-3,3-difluoropyrrolidin-1-yl]-3,4-dihydro-2H-1-benzopyran-3-yl]-6-methylthieno[2,3-b]pyridine-2-carboxamide], the IC50 fell in the range of 1 to 50 nM.

With `Cc1ccc2c(N)c(C(=O)N[C@H]3CCc4nc(N5CC[C@H]6CNC[C@H]65)ccc4C3)sc2n1` [Example 216, N-[(6S)-2-[(3aS,6aS)-octahydropyrrolo[2,3-c]pyrrol-1-yl}-5,6,7,8-tetrahydroquinolin-6-yl]-3-amino-6-methylthieno[2,3-b]pyridine-2-carboxamide], the concentration for half-maximal inhibition (IC50) lay within 1 to 50 nM.

Regarding `Cc1cc(C)c2c(N)c(C(=O)N[C@H]3COc4cc(N5CC[C@@H]6CNC[C@@H]65)ccc4C3)sc2n1` [Example 227, N-[(3R)-7-[(3aR,6aR)-octahydropyrrolo[2,3-c]pyrrol-1-yl]-3,4-dihydro-2H-1-benzopyran-3-yl]-3-amino-4,6-dimethylthieno[2,3-b]pyridine-2-carboxamide], the IC50 was in the range of 1 to 50 nM.

On to `CO[C@H]1CN(c2cc3c(cc2C#N)C[C@@H](NC(=O)c2sc4nc(C)ccc4c2N)CC3)C[C@@H]1N` [Example 201, 3-amino-N-[(2S)-6-[(3S,4S)-3-amino-4-methoxypyrrolidin-1-yl]-7-cyano-1,2,3,4-tetrahydronaphthalen-2-yl]-6-methylthieno[2,3-b]pyridine-2-carboxamide], for which the IC50 lay in the range of 1 to 50 nM.

As for `N#Cc1c(N2CC3CCC(C2)N3)cc(F)c2c1OC[C@H](NC(=O)c1cnc3c(c1)[C@H]1C[C@H]1CN3)C2` [Example 229, (6aR,7aS)-N-[(3R)-8-cyano-7-{3,8-diazabicyclo[3.2.1]octan-3-yl}-5-fluoro-3,4-dihydro-2H-1-benzopyran-3-yl]-5H,6H,6aH,7H,7aH-cyclopropa[c]1,8-naphthyridine-2-carboxamide], the IC50 was 200 to 2000 nM.

As for `COC[C@@H]1CN(c2ccc3c(c2)CC[C@H](NC(=O)c2sc4nc(C)ccc4c2N)C3)C[C@@H]1N` [Example 252, 3-amino-N-[(2S)-6-[(3R,4R)-3-amino-4-(methoxymethyl)pyrrolidin-1-yl]-1,2,3,4-tetrahydronaphthalen-2-yl]-6-methylthieno[2,3-b]pyridine-2-carboxamide], the IC50 lay within 50 to 200 nM.

Turning to `Cc1ccc2c(N)c(C(=O)N[C@H]3COc4cc(N5CC[C@H]6CC[C@H](N)C[C@H]65)ccc4C3)sc2n1` [Example 232, N-[(3R)-7-[(3aR,6S,7aR)-6-amino-octahydro-1H-indol-1-yl]-3,4-dihydro-2H-1-benzopyran-3-yl]-3-amino-6-methylthieno[2,3-b]pyridine-2-carboxamide], the IC50 was in the range of 1 to 50 nM.

As for `Cc1ccc2c(N)c(C(=O)N[C@H]3COc4cc(N5C[C@@H](N)C(F)(F)C5)ccc4C3)sc2n1` [Example 257, 3-amino-N-[(3R)-7-[(4R)-4-amino-3,3-difluoropyrrolidin-1-yl]-3,4-dihydro-2H-1-benzopyran-3-yl]-6-methylthieno[2,3-b]pyridine-2-carboxamide], the IC50 lay in the range of 1 to 50 nM.

In the case of `CO[C@H]1CN(c2cc3c(c(F)c2C#N)C[C@@H](NC(=O)c2sc4nc(C)cnc4c2N)CO3)C[C@@H]1N` [Example 199, 7-amino-N-[(3R)-7-[(3S,4S)-3-amino-4-methoxypyrrolidin-1-yl]-6-cyano-5-fluoro-3,4-dihydro-2H-1-benzopyran-3-yl]-3-methylthieno[2,3-b]pyrazine-6-carboxamide], the IC50 is 1 to 50 nM.
